From US20070190172A1, “Enhanced activity biocidal hydrogen peroxide composition” (ASEPTIX TECHNOLOGIES B.V., priority 2006, published 2007)

Key:
Feline Calici Virus = experiment: EN 14476 virucidal quantitative suspension test; format: cell-based
Description: (§1) In a similar way, fungicidal and virucidal activity was tested using tests dedicated for use with fungi of viruses. For fungi or yeasts, the tests according to European norms EN 1275, EN 1650 or EN 13624 were used. For viruses, the test according to European norm EN 14476 was used.
(§2) A composition comprising 2% H2O2 and 1% Monafax 1214 was prepared and tested against Vacciniavirus, Feline Calici Virus and Adenovirus according to the […] norm:
(§3) EN 14476—Chemical disinfectants and antiseptics—Virucidal quantitative suspension test for chemical disinfectants and antiseptics used in human medicine—Test methods and requirements (phase 2/step 1).

Adenovirus = experiment: EN 14476 virucidal quantitative suspension test; format: cell-based
Description: as §1, §2, §3

Staphylococcus aureus [1] = experiment: EN 1276 bactericidal suspension test; format: cell-based; settings: 1.2% H2O2 + 0.6% surfactant
Excerpt: (§4) Biocidal activity of a composition for use according to the invention is preferably determined by a controlled bactericidal suspension test conform European Norm for chemical disinfectants and antiseptics EN 1276 (EN 1276: Quantitative suspension test for the evaluation of bactericidal activity of chemical disinfectants and antiseptics used in food, industrial, domestic, and institutional areas: test method and requirements). An effective biocidal composition is a composition that provides at least a log 3 reduction after a 1 minute contact time with a Staphylococcus aureus test suspension of 10^8 cfu per ml, preferably at least a log 4 reduction, more preferably at least a log 5 reduction, most preferably at least a log 6 reduction.
(§5) Bactericidal activity of the exemplified compositions was tested using a controlled bactericidal suspension test conform European Norm for chemical disinfectants and antiseptics EN 1276 (EN 1276: Quantitative suspension test for the evaluation of bactericidal activity of chemical disinfectants and antiseptics used in food, industrial, domestic, and institutional areas: test method and requirements). One ml of a test suspension containing about 10^8 cfu of the test microorganism per ml is added to 8 ml of the composition to be tested, and 1 ml milli-Q water is added. In some experiments, a protein load was added to this suspension according to the EN 1276 procedures to simulate unclean practical conditions. To provide for a clean condition 0.3% Bovine Albumin was added and for a dirty condition 3% Bovine Albumin.
(§6) After 1, 2 and 5 minutes contact time, the amount of viable bacteria was determined.

Candida albicans = experiment: EN 1276 bactericidal suspension test; format: cell-based; settings: 1.2% H2O2 + 0.6% surfactant
Excerpt: as §4, §5, §6
(§7) To simulate unclean practical conditions, a protein load was added according to the EN 1276 procedures to bacterial test suspensions. To provide for a clean condition 0.3% Bovine Albumin was added and for a dirty condition 3% Bovine Albumin. The performance of Monafax 1214 was compared with that of the N,N-Dimethyldecylamine-N-oxide (Barlox 10s of Lonza Ltd.). A H2O2 concentration of 1.2% was used and a 0.6% of the respective surfactants. The solution containing Monafax has a pH of around 2.3 and the solution containing Barlox 10s has a pH of around 5.

Bacillus cereus = experiment: EN 1276 bactericidal suspension test; format: cell-based; settings: 1.2% H2O2 + 0.6% surfactant
Excerpt: as §4, §5, §6, §7

Lysteria monocytogenes = experiment: EN 1276 bactericidal suspension test; format: cell-based; settings: 1.2% H2O2 + 0.6% surfactant
Excerpt: as §4, §5, §6, §7

Enterococcus hirae = experiment: EN 1276 bactericidal suspension test; format: cell-based; settings: 1.2% H2O2 + 0.6% surfactant
Excerpt: as §4, §5, §6, §7

Staphylococcus aureus [2] = settings: background statement; cited from earlier work
[3] = clean condition 0.3% Bovine Albumin, 2 min
[4] = clean condition 0.3% Bovine Albumin, 5 min
[5] = dirty condition 3% Bovine Albumin, 2 min
[6] = dirty condition 3% Bovine Albumin, 5 min

## OO [2% H2O2, hydrogen peroxide]
Feline Calici Virus
  log reduction, 3 minutes: log 0.2
  log reduction, 5 minutes: log 0.9
Adenovirus
  log reduction, 5 minutes: log 0.6
  log reduction, 10 minutes: log 0.6

## CCCCCCCCCC[N+](C)(C)[O-] [Barlox 10s (Lonza), N,N-Dimethyldecylamine-N-oxide]
Staphylococcus aureus [1]; [3]
  number of colonies, clean, 2 min: >300
Staphylococcus aureus [1]; [4]
  number of colonies, clean, 5 min: >300
Staphylococcus aureus [1]; [5]
  number of colonies, dirty, 2 min: >300
Staphylococcus aureus [1]; [6]
  number of colonies, dirty, 5 min: >300
Candida albicans; [3]
  number of colonies, clean, 2 min: 300
Candida albicans; [4]
  number of colonies, clean, 5 min: 250
Candida albicans; [5]
  number of colonies, dirty, 2 min: >300
Candida albicans; [6]
  number of colonies, dirty, 5 min: >300
Bacillus cereus; [3]
  number of colonies, clean, 2 min: >300
Bacillus cereus; [4]
  number of colonies, clean, 5 min: >300
Bacillus cereus; [5]
  number of colonies, dirty, 2 min: >300
Bacillus cereus; [6]
  number of colonies, dirty, 5 min: >300
Lysteria monocytogenes; [3]
  number of colonies, clean, 2 min: >300
Lysteria monocytogenes; [4]
  number of colonies, clean, 5 min: >300
Lysteria monocytogenes; [5]
  number of colonies, dirty, 2 min: >300
Lysteria monocytogenes; [6]
  number of colonies, dirty, 5 min: >300
Enterococcus hirae; [3]
  number of colonies, clean, 2 min: 8
Enterococcus hirae; [4]
  number of colonies, clean, 5 min: 0
Enterococcus hirae; [5]
  number of colonies, dirty, 2 min: 6
Enterococcus hirae; [6]
  number of colonies, dirty, 5 min: 1

## OO [3% H2O2, hydrogen peroxide]
Adenovirus
  log reduction, 5 minutes: log 0.5
  log reduction, 10 minutes: log 0.6

## OO [3% w/w hydrogen peroxide, hydrogen peroxide]
Staphylococcus aureus [2]
  time to achieve a greater than 6 log reduction in Staphylococcus aureus: 20 minutes

## OO [hydrogen peroxide]
Staphylococcus aureus [2]
  time to achieve a greater than log 6 reduction in Staphylococcus aureus: 20 seconds
